In patent US8957062B2, “Substituted cyclopropyl compounds, compositions containing such compounds and methods of treatment” (Merck Sharp & Dohme Corp., priority 2011, dated 2015):
Like-named read-outs stand apart in the source and are kept apart here.

Molecular target: T1, human GPR119 (Homo sapiens, UniProt Q8TDV5)
T1 sequence (Q8TDV5 1-308 limits assumed): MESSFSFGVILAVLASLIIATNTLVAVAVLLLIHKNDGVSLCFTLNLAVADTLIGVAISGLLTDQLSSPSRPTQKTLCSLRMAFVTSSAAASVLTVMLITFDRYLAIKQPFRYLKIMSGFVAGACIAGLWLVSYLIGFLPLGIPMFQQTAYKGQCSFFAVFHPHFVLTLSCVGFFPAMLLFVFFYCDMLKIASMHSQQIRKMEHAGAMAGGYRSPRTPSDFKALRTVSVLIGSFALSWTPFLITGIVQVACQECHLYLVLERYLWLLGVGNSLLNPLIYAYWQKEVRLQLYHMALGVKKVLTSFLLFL
Assay: Measurement of GPR119 signaling (cAMP assay) in cells stably transfected with human GPR119
Assay type: cell-based
Details: cAMP stimulation
Protocol: Measurement of GPR119 Signaling (Cyclic AMP (cAMP) Assay)
The adenylate cyclase assay was constructed following the LANCE™ cAMP Kit (Perkin Elmer, AD0264) instructions.
The reaction was stopped by incubating with the supplied detection buffer containing the europium chelate of the Eu-SA/Biotin-cAMP tracer for 3 hours. The assay was performed in duplicate in a 384 well plate for duplicate plates and fluorescence was measured at 665 nm. Basal activity was determined using a DMSO control and maximum response was defined as cAMP stimulation produced by an internal agonist control. Standard cAMP concentrations were assayed concurrently for conversion of fluorescence signal to cAMP level. The data was analyzed using 4-parameter curve fit in Microsoft Excel.
Measurement of GPR119 Signaling (cAMP Homogenous Time Resolved Fluorescence (HTRF) Assay)
Chinese hamster ovary (CHO) cell lines stably transfected with the permissive guanine nucleotide binding protein alpha 15 (Gα15) and murine GPR119 were maintained in DMEM media containing FBS, penicillin-streptomycin, puromycin, and G418 (geneticin). […] Agonist activation of the GPR119 receptor was measured in receptor transfected cells described above, treated with compounds of this invention, using a commercial homogenous time resolved fluorescence (HTRF) kit for measurement of cAMP (CisBio, Bedford, Mass.). The assay was performed in 96-well half-volume plates (murine) or 384-well plates (human) following the manufacturers instructions. Briefly, suspended cells were incubated with a dose titration of test compound at RT for 60 min, lysed, and incubated with HTRF reagents for an additional 60 min. The plate was read using an Envision multilabel reader (Perkin Elmer) adjusted to read time resolved fluorescence and the cAMP concentrations were extrapolated from a cAMP calibration curve. […] The concentration of test compound required to stimulate a half-maximal response (EC50), and efficacy as compared to an internal agonist control, was determined from a sigmoidal 4-parameter curve fit of the resulting plot of normalized activity versus compound concentration.

[1] = table column, human GPR119, read-out: GPR119 Human EC50
[2] = stated in the example text, human GPR119, read-out: GPR119 Human EC50

EC50 [1] [nM] | SMILES | other results
0.93 | CC(C)c1noc(N2CCC([C@H]3C[C@H]3CCOc3ccc(CC(=O)N4Cc5cccnc5C4)c(F)c3)CC2)n1 [Example 159] | –
2 | CCOC(=O)N1CCC([C@H]2C[C@H]2CCOc2ccc(-n3cnnn3)cc2)CC1 [Example 6] | –
22 | CS(=O)(=O)c1ccc(OCC[C@@H]2C[C@@H]2C2CCN(c3noc(C4CC4)n3)CC2)nc1 [Example 238] | –
14 | CC(C)c1noc(N2CCC([C@H]3C[C@H]3CCOc3ccc(CC(=O)N4CCn5nc(C(F)(F)F)nc5C4C)c(F)c3)CC2)n1 (some centres unmarked) [Example 178] | –
– | CC(C)c1noc(N2CCC([C@H]3C[C@H]3CCOc3ccc(CC(=O)N4CCC4)c(Cl)c3)CC2)n1 [Example 103] | EC50 (read-out: GPR119 HumC EC50): 0.58 nM
1.8 | CC(C)c1noc(N2CCC([C@H]3C[C@H]3CCOc3ccc(CC(=O)N4CCc5oncc5C4)c(F)c3)CC2)n1 [Example 177] | –
4 | CS(=O)(=O)c1ccc(OCC[C@@H]2C[C@@H]2C2CCN(c3noc(C4CCC4)n3)CC2)nc1 [Example 241] | –
16 | CC(C)(C)CC(=O)N1CCC([C@H]2C[C@H]2CCOc2ccc(S(C)(=O)=O)cn2)CC1 [Example 89] | –
– | CS(=O)(=O)c1ccc(OCC[C@@H]2C[C@@H]2C2CCN(C(=O)OCC3CC3)CC2)nc1 [Example 13, cyclopropylmethyl 4-((1R,2S)-2-(2-(5-(methylsulfonyl)pyridin-2-yloxy)ethyl)cyclopropyl)piperidine-1-carboxylate] | EC50 [2]: 0.3 nM
– | Cc1cc(-n2cnnn2)cnc1OCC[C@@H]1C[C@@H]1C1CCN(c2nc(C(C)C)no2)CC1 [Example 225, 2-(2-{(1S,2R)-2-[1-(3-isopropyl-1,2,4-oxidiazol-5-yl)piperidin-4-yl]cyclopropyl}ethoxy]-3-methyl-5-(1H-tetrazol-1-yl)pyridine] | EC50 [2]: 0.1 nM
32 | CS(=O)(=O)c1ccc(OCC[C@@H]2C[C@@H]2C2CCN(c3nnc(C4CCCC4)o3)CC2)nc1 [Example 249] | –
25 | Cc1nc(C#N)cc(OCC[C@@H]2C[C@@H]2C2CCN(c3nnc4ncccn34)CC2)n1 [Example 254] | –
– | CC1(OC(=O)N2CCC([C@H]3C[C@H]3CCOc3ccc(CC(=O)N4CC(F)C4)c(F)c3)CC2)CC1 [Example 63] | EC50 (read-out: GPR119 HumC EC50): 0.88 nM
1.1 | CC(C)c1noc(N2CCC([C@H]3C[C@H]3CCOc3ccc(CC(=O)N4C[C@@H](F)[C@H](F)C4)cc3)CC2)n1 [Example 127] | –
– | CCCCc1nnc(N2CCC([C@H]3C[C@H]3CCOc3ccc(S(C)(=O)=O)cn3)CC2)o1 [Example 247, 2-(2-{(1S,2R)-2-[1-(5-butyl-1,3,4-oxidiazol-2-yl)piperidin-4-yl]cyclopropyl}ethoxy)-5-(methylsulfonyl)pyridine] | EC50 [2]: 28 nM
2.2 | CCC1(OC(=O)N2CCC([C@H]3C[C@H]3CCOc3ccc(S(C)(=O)=O)cn3)CC2)CC1 [Example 25] | –
22 | CCOC(=O)N1CCC([C@H]2C[C@H]2CCOc2ccc(S(C)(=O)=O)cn2)CC1 [Example 20] | –
– | CC1(OC(=O)N2CCC([C@H]3C[C@H]3CCOc3ccc(CC(=O)N4CCC4)c(C#N)c3)CC2)CC1 [Example 70] | EC50 (read-out: GPR119 HumC EC50): 2.7 nM
4.1 | O=C(c1c(F)cc(OCC[C@@H]2C[C@@H]2C2CCN(c3nc4cnccn4n3)CC2)cc1F)C1CC1 [Example 252] | –
– | CC1(O)CN(C(=O)Cc2ccc(OCC[C@@H]3C[C@@H]3C3CCN(C(=O)OC4(C)CC4)CC3)cc2F)C1 [Example 64] | EC50 (read-out: GPR119 HumC EC50): 9.5 nM
0.4 | CC(C)c1noc(N2CCC([C@H]3C[C@H]3CCOc3ccc(-n4cnnn4)cn3)CC2)n1 [Example 231] | –
2 | Cc1nc(C#N)cc(OCC[C@@H]2C[C@@H]2C2CCN(C(=O)OC3(C)CC3)CC2)n1 [Example 49] | –
5.1 | COCc1noc(N2CCC([C@H]3C[C@H]3CCOc3ccc(CC(=O)N4CCC[C@@H]4C(F)(F)F)c(F)c3)CC2)n1 [Example 203] | –
